One molecule from patent US20250082765A1, “MOLECULES AS ANTICANCER AGENTS FOR TARGETED TREATMENT OF BREAST AND PROSTATE CANCER” (priority 2021, published 2025) can be followed below.

Data set [1] can be described thus: in vivo. To be noted: albino, mouse, intravenous.
Procedure: (§1) The route of administration incorporated for ester of citric acid with capecitabine and estrogen and ester of citric acid with capecitabine and dihydrotestosterone is through intravenous (IV) bolus.
(§2) The biodistribution analysis was carried out for capecitabine in plasma. […] The biodistribution analysis was carried out in breast tissue for females and in prostate gland for males along with several other organs including blood, liver, lungs and spleen.
(§3) The biodistribution analysis was carried out in three groups of albino mice. The female albino mice of age 7-8 weeks and weight 19g-35g were analyzed for the distribution of capecitabine in breast tissue. The male albino mice of age 7-8 weeks and weight 20g-30g were analyzed for the distribution of capecitabine in prostate gland. The study groups comprised of 3 groups including group 1, group 2 and group 3. The study group 1 comprised 6 mice receiving normal control, study group 2 comprised 6 mice receiving pure drug solution and study group 3 comprised 6 mice receiving molecule of formula (I) anticancer drug.
(§4) The analysis of capecitabine in plasma was initiated by liquid-liquid extraction using ethyl acetate. The extraction was carried out on ethylene bridged hybrid (BEH) C18 (100×2.1 mm, 1.7 μm) column. An isocratic flow rate of 0.5 ml/min of acetonitrile (0.1%) and 0.002M ammonium acetate as mobile phase was incorporated. Mass spectrometry analysis was carried out in multiple reaction monitoring modes. The precursor to product ion transitions with mass to ion (m/z) ratio of 360.04 to 244.08 was found for capecitabine. […] The biodistribution data for capecitabine was obtained for concentrations ranging from 5 ng/ml and 40 ng/ml.
(§5) The biodistribution of capecitabine was also analyzed for several other organs such as blood, liver, lungs and the spleen. […] The biodistribution of capecitabine was analyzed at time intervals of 0.5 hours, 1 hour and 2 hours. The biodistribution data was recorded for 6 mice.
Data set [2] in a line: Biodistribution analysis of capecitabine in other organs (blood, liver, lungs, spleen) of mice. The settings on record: later hours (1 hour, 2 hours).
Procedure: as §1, §2, §3, §4, §5

SMILES strings stand for the structures.

For the molecule `CCCCCOC(=O)Nc1nc(=O)n([C@@H]2O[C@H](C)[C@@H](O)[C@H]2O)cc1F` [capecitabine], the concentration at 0.5 h turned out to be 13 ng/mL in data set [1] (liver), 12.5 ng/mL in data set [1] (lungs), 12.1 ng/mL in data set [1] (spleen) and 13.6 ng/mL in data set [1] (whole blood). In addition, the “biodistribution of capecitabine in blood” value in data set [2] was “negligible”. Moreover, the “biodistribution of capecitabine in liver” value in data set [2] is “negligible”. For the same molecule, the “biodistribution of capecitabine in lungs” value in data set [2] is given as “negligible”. Moreover, in data set [2], the “biodistribution of capecitabine in spleen” value is recorded as “negligible”.
